The text below walks through data of patent publication US6566395B1, “Methods of treating proliferative disorders” (BioMedicines, Inc., priority 1999, dated 2003).

Structures are written as SMILES.

The subject of test [1] is C6 (Central Nervous System). The test can be described thus: In vitro tumor cell growth inhibition, MTS dye conversion assay, C6. It is filed as cell-based, Human. The conditions noted are these: Rattus norvegicus, 4-6 days, read-out: IC50 (concentration associated with 50% inhibition of cell growth). As to the method: (§1) The ability of the compounds of formula I to inhibit tumor cell growth was determined using the assay described in Cory A. H et al., Cancer Commun. 3(7):207-12, 1991.
(§2) Briefly, the assay is a […] method for determining the number of viable cells in proliferation or chemosensitivity assays.
(§3) Human tumor cell lines were propagated under sterile conditions in RPMI 1640 (CellGro) with […] fetal bovine serum (Gibco BRL), 2 mM L-glutamine, and sodium bicarbonate (complete medium). The cells were then incubated at 37° C. in HEPA-filtered Sterilcult CO2 tissue culture incubators (Forma) with 5% CO2 and 95% hymidity. Each cell line was subcultured weekly or biweekly. […]
(§4) The test compounds (100 μL), dissolved in DMSO (Sigma, cell culture grade) and diluted with complete medium, were added to 96-well plates containing attached cellular monolayers (5000 cells/well in 100 μL). […] Antiproliferative effects were assessed with the 3-(4,5-dimethylthiazol-2-yl)-5-(3-carboxymethoxyphenyl)-2-(4-sulfophenyl)-2H-tetrazolium, inner salt (MTS dye) conversion assay. […] The absorbance of formazan in each monolayer was measured at 490 nm on a Coulter microplate reader at 2 and 4 hours after the addition of the MTS solution.
(§5) Growth inhibition data are expressed as a percentage of absorbance detected in control wells and is proportional to the number of viable cells in the culture. […]
On the technique in general: Tetrazolium dyes change colour on reduction, which living cells bring about.

The test system of test [2] is SW-620 colon cancer cell line. The test can be described thus: In vitro tumor cell growth inhibition, MTS dye conversion assay, SW-620. The format is cell-based, Human. The conditions noted are these: 4-6 days. The protocol:
as §1, §2, §3, §4, §5

The subject of another test is MCF7 (Breast). The test can be described thus: In vitro tumor cell growth inhibition, MTS dye conversion assay, MCF7. It is filed as cell-based. The conditions noted are these: Homo sapiens, 4-6 days, read-out: IC50 (concentration associated with 50% inhibition of cell growth). The protocol:
as §1, §2, §3, §4, §5

Test [3] concerns OVCAR-5 ovarian cancer cell line. The experiment in a line: In vitro tumor cell growth inhibition, MTS dye conversion assay, OVCAR-5. The format is cell-based, Human. The conditions noted are these: Ovary, 4-6 days. The protocol:
as §1, §2, §3, §4, §5

For another test, the system named is EKVX (Lung). The experiment in a line: In vitro tumor cell growth inhibition, MTS dye conversion assay, EKVX. The format is cell-based. The conditions noted are these: Homo sapiens, 4-6 days, read-out: IC50 (concentration associated with 50% inhibition of cell growth). The protocol:
as §1, §2, §3, §4, §5

The test system of a further test is CCRF-CEM (Leukemia). The test can be described thus: In vitro tumor cell growth inhibition, MTS dye conversion assay, CCRF-CEM. The format is cell-based. The conditions noted are these: Homo sapiens, 4-6 days, read-out: IC50 (concentration associated with 50% inhibition of cell growth). The protocol:
as §1, §2, §3, §4, §5

[4] abbreviates: Homo sapiens, read-out: IC50 (concentration associated with 50% inhibition of cell growth).

With `Cc1cc(NC(=O)C(C#N)C(=O)C2CC2)ccc1C(F)(F)F` (centres unmarked) [laflunimus, N-(3-Methyl-4trifluoromethylphenyl) 2-Cyano-2-(cyclopropylcarbonyl)acetamide], the IC50 in test [1] was 12 µM; in test [2] (setting [4]) it was 6 µM; in the test on MCF7 (Breast) it was 13 µM; in test [3] (setting [4]) it was 13 µM; with EKVX (Lung), 14 µM; with CCRF-CEM (Leukemia), 28 µM.

Turning to `Cc1oncc1C(=O)Nc1ccc(C(F)(F)F)cc1` [lefunomide, 5-methylisoxazole-4-carboxylic acid-(4-trifluromethyl)-anilide, reference compound], the “IC50 (concentration associated with 50% inhibition of cell growth)” value in test [2] and in test [3] was “did not achieve IC50 effects” each time.
